Where two headings read alike, the source gives them in different places.
Legend:
[1] = biological target: 5-HT2A receptors (Homo sapiens (Human), UniProt P28223); test: 5-HT2A receptor radioligand competition binding assay ([3H]-ketanserin)
Description: The affinity of the compounds of the present disclosure for 5-HT2A receptors was determined by a radioligand competition binding assay. In the first step, a cell membrane component containing specific 5-HT2A receptor was prepared. A 10 cm dish was used for transfection with […] of 5-HT2A receptors and 40 μL of PEI. After 48 hours, the 10 cm dish was taken out from the cell incubator and the cultured cells had expressed the 5-HT2A receptors. A vacuum pump was used to suck off the culture medium, 3 mL of lysis buffer was added to each culture dish, and the cells were placed in a 4° C. cold room for 10 minutes. After the cells were detached, the cells were transferred to a 15 mL centrifuge tube and centrifuged at 1500 rpm for 5 minutes at 4° C., and the supernatant was discarded. The cell pellet was transferred to a tissue homogenizer, and 3 mL of lysis buffer was added and fully ground until the cells were broken. Then, cell suspension was equally aliquoted into several EP tubes, centrifuged at 12000 rpm for 5 minutes at 4° C., and the supernatant was discarded. The precipitate was the cell membrane component containing the 5-HT2A receptors. […] First, a standard binding buffer was added to the cell membrane component containing the 5-HT2A receptors, and the cell membrane was disrupted and resuspended with an electric tissue homogenizer. 30 μL of membrane protein suspension was added to each well of a 96-well plate. Then, 30 μL of different drugs were added to the 96-well plate sequentially from bottom to top to ensure that the final drug concentrations were 10^−5 M, 10^−6 M, 10^−7 M, 10^−8 M, 10^−9 M, and 0 M, with two replicates per treatment. Next, 30 μL of [^3H]-ketanserin was added to each well of the 96-well plate. The plate was incubated at room temperature in the dark for 2 hours. Detection was conducted. The machine readout value reflected the amount of [^3H]-ketanserin bound on the membrane, and after further data processing, the affinity Ki values of different compounds for the 5-HT2A receptors were obtained.

[2] = Pharmacokinetics in SD rats, single dose intragastric and intravenous; format: in vivo; details: for half-life: read-out: Elimination half-life t1/2 (converted); for AUC(0-t): read-out: Area under the drug-time curve AUC0-t; for MRT: read-out: Mean residence time MRT
Description: Testing of pharmacokinetic properties of compounds administered in a single dose to SD rats by intragastric administration and intravenous injection
After the compound was administered in a single dose to male SD rats, blood samples were collected at different time points. The concentration of the compound in the plasma of the rats was determined by LC-MS/MS and the relevant pharmacokinetic parameters were calculated to investigate the pharmacokinetics of the compound in rats.
Male SD rats were provided by Suzhou JOINN Laboratories Co., Ltd. SD rats were fasted with free access to water for 12 to 14 hours one day before administration, and were fed 4 hours after administration.
For each compound, the […] were divided into two groups: intravenous injection and intragastric administration, with 3 rats in each group. For both intravenous injection (administered at a dose of 3 mg/kg and a concentration of 0.6 mL/kg) and intragastric administration (administered at a dose of 10 mg/kg and a concentration of 1 mL/kg), 5% DMSO+5% Solutol+90% saline was used as the vehicle.
Sample collection: 0.10 mL of blood was collected from the orbit of each animal in IV/PO groups each time at 5 minutes, 15 minutes, 30 minutes, 1 hour, 2 hours, 4 hours, 6 hours, 8 hours, and 24 hours after administration of the test compound, and anticoagulated with EDTA-K2. Blood samples were placed on ice after collection, and plasma was separated by centrifugation within 30 minutes (centrifugation conditions: 5000 rpm, 10 minutes, 4° C.). The collected plasma was stored at −80° C. before analysis.
Data processing: The data acquisition and control system software was Analyst 1.5.1 software (Applied Biosystem). The peak integration method of chromatographic samples was automatic integration; the ratio of the peak area of the sample to the peak area of the internal standard was used as an index for regression with the concentration of the sample. […] Pharmacokinetic parameters were analyzed with a non-compartmental model using WinNonlin Professional v6.3 (Pharsight, USA). Cmax was the measured maximum plasma concentration, the area under the plasma concentration-time curve AUC(0→t) was calculated by the trapezoidal method, and tmax was the time to peak plasma concentration after administration. Experimental data were presented as “Mean±SD” (n≥3) or “Mean” (n=2).

[3] = Brain permeability test, single intraperitoneal dose in C57 male mice; format: in vivo; details: male, C57, mouse, intraperitoneal 5 mg/kg
Description: Using the same method as that in the pharmacokinetic experiment, 0.030 mL of blood was collected from the orbit of each animal at 0.5 hours, 2.0 hours, and 4.0 hours, and anticoagulated with EDTA-K2. Blood samples were placed on ice after collection, and plasma was separated by centrifugation within 30 minutes (centrifugation conditions: 5000 rpm, 10 minutes, 4° C.). The collected plasma was stored at −80° C. before analysis. […] The homogenate was stored at −80° C. before analysis. Drug concentrations in plasma and brain tissues were analyzed by LC/MS/MS for comparison.

[4] = male, rat, plasma, intravenous injection, 3 mg/kg, read-out: Peak drug concentration C0 or Cmax
[5] = male, rat, plasma, oral administration, 10 mg/kg
[6] = 0.5 h, brain, read-out: 0.5 h brain concentration
[7] = 0.5 h, plasma, read-out: 0.5 h plasma concentration
[8] = 2.0 h, brain, read-out: 2.0 h brain concentration
[9] = 2.0 h, plasma, read-out: 2.0 h plasma concentration
[10] = male, rat, plasma, intravenous injection, 3 mg/kg

5-HT2A receptors, sequence (P28223 whole entry): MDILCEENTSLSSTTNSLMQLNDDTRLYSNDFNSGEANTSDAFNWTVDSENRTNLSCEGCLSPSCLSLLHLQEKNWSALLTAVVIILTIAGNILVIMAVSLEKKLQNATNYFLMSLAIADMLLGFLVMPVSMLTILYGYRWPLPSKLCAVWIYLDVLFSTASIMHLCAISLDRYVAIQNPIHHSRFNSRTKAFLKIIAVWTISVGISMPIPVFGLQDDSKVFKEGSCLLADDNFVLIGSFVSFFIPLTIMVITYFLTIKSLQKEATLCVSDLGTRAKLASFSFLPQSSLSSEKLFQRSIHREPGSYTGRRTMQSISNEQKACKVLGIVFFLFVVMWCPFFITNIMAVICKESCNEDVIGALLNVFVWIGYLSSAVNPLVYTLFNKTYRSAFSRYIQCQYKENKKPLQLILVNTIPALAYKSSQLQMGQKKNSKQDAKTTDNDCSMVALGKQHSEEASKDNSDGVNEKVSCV

COc1cccc2c3c(oc12)CN(CCCCOc1ccc2ccc(=O)[nH]c2c1)CC3 [I-A1, 7-(4-(8-methoxy-3,4-dihydrobenzofuro[2,3-c]pyridin-2(1H)-yl)butoxy)quinolin-2(1H)-one]
affinity for 5-HT2A receptors (in words) [1]: very weak affinity | pKi ± SEM ([1]; [3H]-ketanserin, 293T membranes): (5.74 ± 0.03) | Ki ([1]; [3H]-ketanserin, 293T membranes, read-out: Ki): 1790 nM | Area under the drug-time curve AUC0-t ([2]; intravenous injection, 3 mg/kg): 2991 ± 212 ng·h/mL | Clearance CL ([2]; intravenous injection, 3 mg/kg): 16.7 ± 1.12 mL/min/kg | Elimination half-life t1/2 ([2]; intravenous injection, 3 mg/kg): 3.48 ± 0.1 h | Cmax [2, 4]: 1330 ± 117 ng/mL | half-life [2, 5]: 3.91 ± 0.3 h | Area under the drug-time curve AUC0-t ([2]; oral administration, 10 mg/kg): 8916 ± 3642 ng·h/mL | Bioavailability F ([2]; oral administration, 10 mg/kg): 88.8 ± 36% | Peak drug concentration Cmax ([2]; oral administration, 10 mg/kg): 1555 ± 362 ng/mL | Time to peak concentration tmax ([2]; oral administration, 10 mg/kg): 0.50 ± 0 h | concentration at 0.5 h [3, 6]: 1110 ± 43 ng/mL | concentration at 0.5 h [3, 7]: 2220 ± 447 ng/mL | concentration at 2 h [3, 8]: 236 ± 25 ng/mL | concentration at 2 h [3, 9]: 397 ± 26.3 ng/mL

COc1cccc2c3c(oc12)CN(CC[C@H]1CC[C@H](NC(=O)N(C)C)CC1)CC3 [I-A12, 3-(trans-4-(2-(8-methoxy-3,4-dihydrobenzofuro[2,3-c]pyridin-2(1H)-yl)ethyl)cyclohexyl)-1,1-dimethylurea]
Vd ([2]; male, rat, plasma, intravenous injection, 3 mg/kg, read-out: Apparent volume of distribution Vdss): 9.14 ± 1.5 L/kg | AUC(0-t) [2, 10]: 1100 ± 215 ng·h/mL | clearance ([2]; male, rat, plasma, intravenous injection, 3 mg/kg, read-out: Clearance CL): 45.4 ± 7.9 mL/min/kg | half-life [2, 10]: 4.14 ± 0.7 h | MRT [2, 10]: 3.36 ± 0.2 h | Cmax [2, 4]: 824 ± 299 ng/mL | AUC(0-t) [2, 5]: 5660 ± 2660 ng·h/mL | bioavailability ([2]; male, rat, plasma, oral administration, 10 mg/kg, read-out: Bioavailability F): 151 ± 71% | half-life [2, 5]: 3.58 ± 0.5 h | MRT [2, 5]: 4.42 ± 0.66 h | Cmax ([2]; male, rat, plasma, oral administration, 10 mg/kg, read-out: Peak drug concentration Cmax): 963 ± 322 ng/mL | Tmax ([2]; male, rat, plasma, oral administration, 10 mg/kg, read-out: Time to peak concentration tmax): 0.833 ± 1 h | Kp at 0.5 h ([3]; brain/plasma, ip, 0.5 h, read-out: 0.5 h ratio (brain/plasma)): 1.69 | Kp at 2 h ([3]; brain/plasma, ip, 2.0 h, read-out: 2.0 h ratio (brain/plasma)): 2.26 | concentration at 0.5 h [3, 6]: 1400 ± 220 ng/mL | concentration at 0.5 h [3, 7]: 830 ± 119 ng/mL | concentration at 2 h [3, 8]: 455 ± 61 ng/mL | concentration at 2 h [3, 9]: 202 ± 56.2 ng/mL
